The target of this experiment is gp96 (Canis lupus, UniProt P41148). In words: gamma-32P ATP ATPase assay with purified gp96. In kind it is biochemical.

SMILES strings stand for the structures.

Sequence of gp96 (P41148 22-804): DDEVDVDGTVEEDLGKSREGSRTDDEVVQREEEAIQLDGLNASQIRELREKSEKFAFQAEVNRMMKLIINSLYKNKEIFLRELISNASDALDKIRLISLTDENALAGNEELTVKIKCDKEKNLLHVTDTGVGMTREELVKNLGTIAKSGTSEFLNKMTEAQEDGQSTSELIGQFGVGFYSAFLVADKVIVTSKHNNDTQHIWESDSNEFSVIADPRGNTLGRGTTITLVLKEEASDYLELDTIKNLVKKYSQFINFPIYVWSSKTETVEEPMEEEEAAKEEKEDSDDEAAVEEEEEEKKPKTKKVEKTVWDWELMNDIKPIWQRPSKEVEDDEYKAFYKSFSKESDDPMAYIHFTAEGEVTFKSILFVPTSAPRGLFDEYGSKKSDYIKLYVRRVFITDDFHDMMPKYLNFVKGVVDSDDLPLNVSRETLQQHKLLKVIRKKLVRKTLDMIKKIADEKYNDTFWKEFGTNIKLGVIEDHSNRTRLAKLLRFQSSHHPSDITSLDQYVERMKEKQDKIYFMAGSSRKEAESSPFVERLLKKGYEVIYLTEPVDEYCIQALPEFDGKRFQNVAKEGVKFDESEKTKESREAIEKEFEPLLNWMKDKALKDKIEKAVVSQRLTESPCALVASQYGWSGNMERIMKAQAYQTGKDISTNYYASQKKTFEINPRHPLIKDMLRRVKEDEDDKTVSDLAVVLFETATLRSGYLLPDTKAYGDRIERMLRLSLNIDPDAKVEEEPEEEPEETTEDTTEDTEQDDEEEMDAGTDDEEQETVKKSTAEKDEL

What is called IC50 is the concentration at which inhibition is half-maximal. Take `C/C(=N\NC(=N)N)c1cc(NC(=O)CCCCCCCCC(=O)Nc2cc(/C(C)=N/NC(=N)N)cc(/C(C)=N/NC(=N)N)c2)cc(/C(C)=N/NC(=N)N)c1` [Semapimod, N, N’-bis [3,5-diacetylphenyl] decanediamide tetrakis [amidinohydrazone]]: the IC50 was around 300 nM.

(Values after paper PMC4896225 (Journal of immunology (Baltimore, Md. : 1950), 2016).)
